# Test results taken from patent US7109338B2, “1,2-disubstituted 1,4-dihydro-4-oxoquinoline compounds” (priority 1999, dated 2006).
# How the values were obtained:
# [1] = system: Poliovirus type 1 (Polio 1, Sabin); assay: microbe, parasite or virus in culture; format: cell-based
# [2] = system: echovirus type 11 (Echo 11, Gregory); assay: In vitro anti-picornavirus activity (MTT), Echo 11; format: cell-based; details: HeLa-S3 cells, MTT method, 37° C.
# [3] = system: coxsackievirus type A7 (CA7); assay: In vitro anti-picornavirus activity (MTT), CA7; format: cell-based; details: HeLa-S3 cells, MTT method, 37° C.
# [4] = system: coxsackievirus type B4 (CB4,JVB); assay: In vitro anti-picornavirus activity (MTT), CB4; format: cell-based; details: HeLa cells, MTT method, 37° C.
# [5] = system: HRV1A (E28); assay: Anti-rhinovirus activity (MTT), HRV1A; format: cell-based, human rhinovirus; set-up: Anti-Rhinovirus activity, HRV1A: unit not given here
# [6] = system: human rhinovirus type 1B (HRV 1B, B632); assay: Anti-rhinovirus activity (MTT), HRV1B; format: cell-based; set-up: Anti-Rhinovirus activity, HRV1B: unit not given here
# [7] = system: HRV 2 (HGP); assay: Anti-rhinovirus activity (MTT), HRV2; format: cell-based, human rhinovirus; set-up: Anti-Rhinovirus activity, HRV2: unit not given here
# [8] = system: HRV14 (1059); assay: Anti-rhinovirus activity (MTT), HRV14; format: cell-based, human rhinovirus; set-up: Anti-Rhinovirus activity, HRV14: unit not given here
# [9] = system: HRV 89 (41617-Gallo); assay: Anti-rhinovirus activity (MTT), HRV89; format: cell-based, human rhinovirus; set-up: Anti-Rhinovirus activity, HRV89: unit not given here
# [10] = system: HRV3(FEB); assay: Anti-rhinovirus spectrum (MTT), HRV3; format: cell-based, human rhinovirus; set-up: Anti-Rhinovirus activity, HRV3: unit not given here; details: HRV3
# [11] = system: HRV5; assay: Anti-rhinovirus spectrum (MTT), HRV5; format: cell-based, human rhinovirus; set-up: Anti-Rhinovirus activity, HRV5: unit not given here; details: HRV5
# [12] = system: HRV8(MRH); assay: Anti-rhinovirus spectrum (MTT), HRV8; format: cell-based, human rhinovirus; set-up: Anti-Rhinovirus activity, HRV8: unit not given here; details: HRV8
# [13] = system: HRV10 (204-CV14); assay: Anti-rhinovirus spectrum (MTT), HRV10; format: cell-based, human rhinovirus; set-up: Anti-Rhinovirus activity, HRV10: unit not given here; details: HRV10
# [14] = system: HRV13 (353); assay: Anti-rhinovirus spectrum (MTT), HRV13; format: cell-based, human rhinovirus; set-up: Anti-Rhinovirus activity, HRV13: unit not given here; details: HRV13
# [15] = system: HRV16 (11757); assay: Anti-rhinovirus spectrum (MTT), HRV16; format: cell-based, human rhinovirus; set-up: Anti-Rhinovirus activity, HRV16: unit not given here; details: HRV16
# [16] = system: HRV21 (47); assay: Anti-rhinovirus spectrum (MTT), HRV21; format: cell-based, human rhinovirus; set-up: Anti-Rhinovirus activity, HRV21: unit not given here; details: HRV21
# [17] = system: HRV29 (5582); assay: Anti-rhinovirus spectrum (MTT), HRV29; format: cell-based, human rhinovirus; set-up: Anti-Rhinovirus activity, HRV29: unit not given here; details: HRV29
# [18] = system: HRV31 (41F); assay: Anti-rhinovirus spectrum (MTT), HRV31; format: cell-based, human rhinovirus; set-up: Anti-Rhinovirus activity, HRV31: unit not given here; details: HRV31
# [19] = system: HRV32 (363); assay: Anti-rhinovirus spectrum (MTT), HRV32; format: cell-based, human rhinovirus; set-up: Anti-Rhinovirus activity, HRV32: unit not given here; details: HRV32
# [20] = system: HRV33 (1200); assay: Anti-rhinovirus spectrum (MTT), HRV33; format: cell-based, human rhinovirus; set-up: Anti-Rhinovirus activity, HRV33: unit not given here; details: HRV33
# [21] = system: HRV36 (342H); assay: Anti-rhinovirus spectrum (MTT), HRV36; format: cell-based, human rhinovirus; set-up: Anti-Rhinovirus activity, HRV36: unit not given here; details: HRV36
# [22] = system: HRV39 (209); assay: Anti-rhinovirus spectrum (MTT), HRV39; format: cell-based, human rhinovirus; set-up: Anti-Rhinovirus activity, HRV39: unit not given here; details: HRV39
# [23] = system: HRV41 (56110); assay: Anti-rhinovirus spectrum (MTT), HRV41; format: cell-based, human rhinovirus; set-up: Anti-Rhinovirus activity, HRV41: unit not given here; details: HRV41
# [24] = system: HRV50(A2#58); assay: Anti-rhinovirus spectrum (MTT), HRV50; format: cell-based, human rhinovirus; set-up: Anti-Rhinovirus activity, HRV50: unit not given here; details: HRV50
# [25] = system: HRV61 (6669-CV39); assay: Anti-rhinovirus spectrum (MTT), HRV61; format: cell-based, human rhinovirus; set-up: Anti-Rhinovirus activity, HRV61: unit not given here; details: HRV61
# [26] = system: clinical isolate (89229T); assay: microbe, parasite or virus in culture; format: cell-based, human rhinovirus; set-up: Anti-Rhinovirus activity, Clinical isolated strain: unit not given here; details: Clinical isolated strain
# [27] = system: Human rotavirus (HROV, Odelia); assay: In vitro anti-rotavirus activity (plaque reduction), HRoV; format: cell-based; details: MA104 cells, four days after infection
# Method: (§1) Human rotavirus (HROV, Odelia) and simian rotavirus (SRoV, SA11) were used in this experiment. Confluent monolayers of MA104 cells in 6-well multiplate were washed with Eagle MEM containing 0.5 μg/ml of trypsin and were infected with tripsinized-rotavirus (treated with 10 μg/ml of tripsin at 37° C. for 1.5 hr) at 50 PFU per well. After 1 hr of adsorption, the virus inoculum was removed, and the monolayers were washed with Eagle MEM containing 0.5 μg/ml of trypsin and overlaid with Eagle MEM containing 1 μg/ml of trypsin, 0.6% purified agar and the test compounds at various concentrations. The cultures were incubated at 37° C. for 3 days and same overlay medium was added. Four days after infection, the cell sheets were washed with PBS and stained with 1.3% crystal violet in 95% ethanol. The antiviral efficacy of the compounds was expressed as the IC50, that is the concentration of the compounds required to reduce the number of plaques to 50% in the control (virus-infected, but […]).
# [28] = system: simian rotavirus (SRoV, SA11); assay: In vitro anti-rotavirus activity (plaque reduction), SRoV; format: cell-based; details: MA104 cells, four days after infection
# Method: as §1
# [29] = system: HeLa cells; assay: Cytotoxicity (MTT, without virus), HeLa; details: HeLa, no virus, incubated for 4 days
# [30] = system: HeLa-S3 cells; assay: Cytotoxicity (MTT, without virus), HeLa-S3; details: HeLa-S3, no virus, incubated for 4 days
# [31] = system: HeLa (Ohio strain)cells; assay: Cytotoxicity (MTT, without virus), HeLa(Ohio); details: HeLa(Ohio), no virus, incubated for 4 days
# [32] = HeLa (Ohio strain) cells, MTT method, 33° C.
structure (smiles),measurement,setting,value
"CCc1ccc2c(c1)Cc1c-2n(CC)c2ccc(C(C)C)cc2c1=O [Compound B9, 2.5-Diethyl-8-isopropyl-5,10-dihydro-11H-indeno[1,2-b]quinolin-10-one]",IC50 Polio 1,[1],0.18 µg/mL
same,IC50 Echo 11,[2],0.18 µg/mL
same,IC50 CA7,[3],0.71 µg/mL
same,IC50 CB4,[4],0.56 µg/mL
same,"Anti-Rhinovirus activity, HRV1A",[5]; HRV1A,>1.0
same,IC50 HRV 1A,[5]; [32],>1 µg/mL
same,"Anti-Rhinovirus activity, HRV1B",[6]; HRV1B,0.25
same,IC50 HRV1B,[6]; [32],0.25 µg/mL
same,"Anti-Rhinovirus activity, HRV2",[7]; HRV2,0.20
same,IC50 HRV2,[7]; [32],0.20 µg/mL
same,"Anti-Rhinovirus activity, HRV14",[8]; HRV14,0.58
same,IC50 HRV 14,[8]; [32],0.58 µg/mL
same,"Anti-Rhinovirus activity, HRV89",[9]; HRV89,0.21
same,IC50 HRV89,[9]; [32],0.21 µg/mL
same,"Anti-Rhinovirus activity, HRV3",[10],0.23
same,"Anti-Rhinovirus activity, HRV5",[11],0.17
same,"Anti-Rhinovirus activity, HRV8",[12],0.15
same,"Anti-Rhinovirus activity, HRV10",[13],0.47
same,"Anti-Rhinovirus activity, HRV13",[14],0.14
same,"Anti-Rhinovirus activity, HRV16",[15],0.47
same,"Anti-Rhinovirus activity, HRV21",[16],0.16
same,"Anti-Rhinovirus activity, HRV29",[17],0.19
same,"Anti-Rhinovirus activity, HRV31",[18],0.15
same,"Anti-Rhinovirus activity, HRV32",[19],0.13
same,"Anti-Rhinovirus activity, HRV33",[20],0.094
same,"Anti-Rhinovirus activity, HRV36",[21],0.16
same,"Anti-Rhinovirus activity, HRV39",[22],0.20
same,"Anti-Rhinovirus activity, HRV41",[23],0.13
same,"Anti-Rhinovirus activity, HRV50",[24],0.13
same,"Anti-Rhinovirus activity, HRV61",[25],0.16
same,"Anti-Rhinovirus activity, Clinical isolated strain",[26],0.31
same,Anti-rotavirus activity IC50 HRoV(Odelia),[27],0.56 µg/mL
same,Anti-rotavirus activity IC50 SRoV(SA11),[28],0.59 µg/mL
same,Cytotoxicity CC50 HeLa,[29],>1 µg/mL
same,Cytotoxicity CC50 HeLa-S3,[30],>1 µg/mL
same,Cytotoxicity CC50 HeLa(Ohio),[31],>1 µg/mL
